Experimental data as given in US7588783B2, “Flavonoid derivative” (Merck Patent GmbH, priority 2003, dated 2009).
In brackets after ≈: the same amount, converted by molar mass.

Assays:
[1] = system: epican gene (hyaluronic acid receptor); assay: cDNA array gene expression: epican gene; format: cell-based, human; conditions: detectable by cDNA array
Experimental: (§1) The influence on the expression of the said genes can be detected by means of a cDNA array.
(§2) The culture medium in cell cultures (human keratinocytes) is replaced by culture medium with (test) or without test substance (control). The cells are cultivated further for a defined time, harvested and frozen at −80°.
(§3) The RNA is extracted, where each culture comprises about 200 μg of RNA. The solution is adjusted to 1 μg/μl of RNA and treated with DNAse I in order to remove all DNA residues. The amount of RNA is adjusted to 2 μg/ml.
(§4) The mRNA is transcribed to cDNA ^32P-labelled samples and purified by chromatography.
(§5) The DNA sequences are immobilised on cDNA chip membranes and hybridised (overnight at 68° C). The membranes are washed intensively, and the radioactivity of each measurement point is measured. An increase in the radioactivity means upregulation of the corresponding RNA compared with the control.

transglutaminase = assay: cDNA array gene expression in human keratinocytes: transglutaminase gene; format: cell-based; conditions: detectable by cDNA array
Experimental: The influence on the expression of the said genes can be detected by means of a cDNA array. Expression of the Transqlutaminase Gene The culture medium in cell cultures (human keratinocytes) is replaced by culture medium with (test) or without test substance (control). The cells are cultivated further for a defined time, harvested and frozen at −80°. The RNA is extracted, where each culture comprises about 200 μg of RNA. The solution is adjusted to 1 μg/μl of RNA and treated with DNAse I in order to remove all DNA residues. The amount of RNA is adjusted to 2 μg/ml. The mRNA is transcribed to cDNA ^32P-labelled samples and purified by chromatography. The DNA sequences are immobilised on cDNA chip membranes and hybridised (overnight at 68° C). The membranes are washed intensively, and the radioactivity of each measurement point is measured. An increase in the radioactivity means upregulation of the corresponding RNA compared with the control.

water solubility = format: physicochemical; conditions: at 25° C.
[2] = system: tissue inhibitor of metalloproteinase 1 precursor (TIMP1); assay: cDNA array gene expression: TIMP1; format: cell-based, human; conditions: detectable by cDNA array
Experimental: as §1, §2, §3, §4, §5

arachidonic acid cascade = assay: antiinflammatory activity, keratinocyte monolayer PGE2 model; format: cell-based
Experimental: In order to induce inflammation, keratinocytes are incubated with the pro-inflammatory substance phorbol myristate acetate (PMA) for 24 hours in 96-well plates (15,000 cells/well). The preincubated cells (final concentration of PMA 0.1 μg/ml) are incubated with 10^−6 M indometacin (positive control) or 0.2 mM [5-hydroxy-7-methoxy-2-(4′-methoxyphenyl)-4-oxo-4H-chromen-8-yl]sulfonic acid monoester for 24 hours. The negative control used is a control culture comprising no PMA. After incubation, the content of prostaglandin E2 (PGE2) in all three samples is determined by ELISA kits.

COc1ccc(-c2cc(=O)c3c(O)cc(OC)c(OS(=O)(=O)O)c3o2)cc1 [[5-hydroxy-7-methoxy-2-(4′-methoxyphenyl)-4-oxo-4H-chromen-8-yl]sulfonic acid monoester]
expression of the epican gene (hyaluronic acid receptor) [1]: induces the expression
gene expression of transglutaminase (transglutaminase): induction of gene expression
solubility (water solubility): 21 mg/mL (≈ 53.3 mM)
synthesis of tissue inhibitor of metalloproteinase 1 precursor (TIMP1) [2]: induces the synthesis
effect on the arachidonic acid cascade (antiinflammatory action) (arachidonic acid cascade): inhibits the arachidonic acid cascade
